The results in this text go back to BindingDB's records for patent US10065961 (Ogeda, 2018).

In the assay the target is T1, Neuromedin-K receptor (Homo sapiens, UniProt P29371).
T1 sequence (P29371 whole entry): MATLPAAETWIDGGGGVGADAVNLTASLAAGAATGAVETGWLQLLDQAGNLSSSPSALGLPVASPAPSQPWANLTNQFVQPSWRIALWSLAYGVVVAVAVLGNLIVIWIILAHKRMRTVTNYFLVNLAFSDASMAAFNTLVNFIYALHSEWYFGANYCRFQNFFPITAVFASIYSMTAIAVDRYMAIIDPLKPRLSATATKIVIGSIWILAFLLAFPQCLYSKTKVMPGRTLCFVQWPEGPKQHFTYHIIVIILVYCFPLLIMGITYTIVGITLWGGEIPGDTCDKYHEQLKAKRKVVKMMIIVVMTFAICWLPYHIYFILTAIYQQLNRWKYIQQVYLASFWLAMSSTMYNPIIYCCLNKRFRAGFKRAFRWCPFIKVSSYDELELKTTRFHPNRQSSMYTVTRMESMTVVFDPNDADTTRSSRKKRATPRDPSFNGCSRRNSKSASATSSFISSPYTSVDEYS
Kind of assay: Aequorin Assay with Human NK-3 Receptor.

Structures are written as SMILES.

As a reminder, the IC50 is the concentration that inhibits the measured activity by half. Read a low IC50 as greater potency.

Protocol: The antagonist activity of compounds of the invention is measured following pre-incubation (3 minutes) of the compound with the cells, followed by addition of the reference agonist (NKA) at a final concentration equivalent to the EC80 (3 nM) and recording of emitted light (FDSS 6000 Hamamatsu) over the subsequent 90-second period. The intensity of the emitted light is integrated using the reader software.

As to `Cc1coc(-c2nnc3n2CCN[C@@H]3C)n1` [US10065961, Compound 27], it took 51 nM to reach half-maximal inhibition (IC50).
